Data: patent publication US20040235049A1, “Device for presentation of polypeptides able to be used as a chip for miniaturised detection of molecules” (priority 2001, published 2004)
Like-named read-outs stand apart in the source and are kept apart here.

Columns and labels:
[1] = molecular target: rhodamine-conjugated streptavidin (Streptomyces avidinii, UniProt P22629); details: streptavidin 10^−3 mg/ml
Description: (§1) Each concentration is spotted 6 times per slide.
The slides are then incubated in the presence of 150 μl of a 10^−3 mg/ml solution of rhodamine-conjugated streptavidin (solution of streptavidin Tetramethyl Rhodamine conjugate (Molecular Probes, Oregon, USA)) diluted in an 0.01 M PBS buffer, pH 7.2 in 15 the presence of different concentrations of biotin (10^−3 M, 10^−4 M, 10^−5 M, 10^−7 M and 0 M under a glass cover slip (24×60 mm). The slides are incubated for 2 hours at 37° C. under a moist atmosphere. A series of 4 successive washings is carried out with PBS solution to which 0.05% Tween 20 had been added. The slides are then rinsed, dried and analysed as stated above.

[2] = test system: Rhodamine Conjugated affinity Purified anti-Biotin [goat]
Description: as §1
(§2) The slides are incubated for 2 hours at 37° C. under a moist atmosphere. A series of 4 successive washings is carried out with PBS solution to which 0.05% Tween 20 had been added. The slides are then rinsed with a deionised water wash-bottle then with 95° ethanol for 1 minute, then dried for 15 minutes in the ambient atmosphere.
(§3) The results expressed in the following table correspond to the mean fluorescence and to the standard deviation of the 6 spots of each concentration obtained after incubation of the rhodamine-conjugated streptavidin and the rhodamine- conjugated anti-biotin antibody respectively.

[3] = molecular target: Streptavidin Tetramethyl Rhodamine conjugate (Streptomyces avidinii, UniProt P22629)
Sequence of Streptavidin Tetramethyl Rhodamine conjugate (P22629 37-163 limits assumed): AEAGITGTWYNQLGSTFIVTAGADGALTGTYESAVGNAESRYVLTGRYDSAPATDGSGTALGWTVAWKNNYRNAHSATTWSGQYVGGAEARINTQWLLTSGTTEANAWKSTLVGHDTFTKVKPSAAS
Description: as §1, §2, §3

[4] = test system: antibodies of positive and negative sera (HCV); assay: Ketone-functionalised (transaminated) peptide on semicarbazide slides tested with sera; type: binding, human; details: 16 spots, peptide 10^−4 M
Description: The slides are then incubated in the presence of 100 μl of serum from patients diluted to 1/50th in the dilution buffer (PBS+2.5% of powdered semi-skimmed milk+0.5% of Tween 20) under a glass cover slip (24×60 mm). […] 4 successive washes are then effected for 3 minutes in PBS solution with 0.05% added Tween 20.
The reaction of the antibodies of patients with the polypeptides attached to the slide is detected by the binding onto these of fluorescent anti-human IgG antibodies. 100 μl of solution of anti-human IgG-A-M antibodies labelled with rhodamine (TRITC) (Jackson ImmunoResearch Laboratories, Baltimore, US) diluted to 1/100th in the dilution buffer (PBS+2.5% of powdered semi-skimmed milk+0.5% of Tween 20) are then deposited onto each slide. Each slide is then covered with a cover slip (24×60 mm) and left to incubate for 1 hours at 37° C. under a moist atmosphere. A series of 4 successive washes in PBS solution with 0.05% of added Tween 20 is carried out.
The fluorescence emitted is then detected using a slide scanner (L35/PMT 50, Affymetrix 418 Chip Scanner, MWG).
The 2 peptides HCVpc21-Met (non-transaminated) and pc21-TA (transaminated) and also the peptide HCVpc21-2 (described in Example 3) were attached to semicarbazide slides at the rate of 16 spots of each peptide per slide.
Each peptide was deposited at the concentration of 10^−4 M.
The slides were incubated in the presence of 4 positive sera and 2 negative sera.

Sequence of rhodamine-conjugated streptavidin (P22629 37-163 limits assumed): as above

In the case of “H-Lys(biotin-G2)AYLAG-NH(CH2)3O(CH2)2O(CH2)2O(CH2)3NHCOCHO [pep-Biotine]”, the “mean fluorescence (6 spots)” value ([1]; pep-Biotine 10^−3 mg/ml, biotin in competition 0 M) is reported as 29836, the “mean fluorescence (6 spots)” value ([1]; pep-Biotine 10^−3 mg/ml, biotin in competition 10^−3 M) is reported as 376 and the “mean fluorescence (6 spots)” value ([1]; pep-Biotine 10^−3 mg/ml, biotin in competition 10^−4 M) is reported as 2237. The “mean fluorescence (6 spots)” value ([1]; pep-Biotine 10^−3 mg/ml, biotin in competition 10^−6 M) was 16683, the “mean fluorescence (6 spots)” value ([1]; pep-Biotine 10^−3 mg/ml, biotin in competition 10^−7 M) was 17132 and the “mean fluorescence (6 spots)” value ([1]; pep-Biotine 10^−4 mg/ml, biotin in competition 0 M) was 24666. For the same substance, the “mean fluorescence (6 spots)” value ([1]; pep-Biotine 10^−4 mg/ml, biotin in competition 10^−3 M) was 207, the “mean fluorescence (6 spots)” value ([1]; pep-Biotine 10^−4 mg/ml, biotin in competition 10^−4 M) was 961 and the “mean fluorescence (6 spots)” value ([1]; pep-Biotine 10^−4 mg/ml, biotin in competition 10^−6 M) was 9414. The “mean fluorescence (6 spots)” value ([1]; pep-Biotine 10^−4 mg/ml, biotin in competition 10^−7 M) was 12178, the “mean fluorescence (6 spots)” value ([1]; pep-Biotine 10^−5 mg/ml, biotin in competition 0 M) was 20902 and the “mean fluorescence (6 spots)” value ([1]; pep-Biotine 10^−5 mg/ml, biotin in competition 10^−3 M) was 107. The “mean fluorescence (6 spots)” value ([1]; pep-Biotine 10^−5 mg/ml, biotin in competition 10^−4 M) was 322, the “mean fluorescence (6 spots)” value ([1]; pep-Biotine 10^−5 mg/ml, biotin in competition 10^−6 M) was 3588 and the “mean fluorescence (6 spots)” value ([1]; pep-Biotine 10^−5 mg/ml, biotin in competition 10^−7 M) was 6129. For the same substance, the “mean fluorescence (6 spots)” value ([1]; pep-Biotine 10^−6 mg/ml, biotin in competition 0 M) was 10737, the “mean fluorescence (6 spots)” value ([1]; pep-Biotine 10^−6 mg/ml, biotin in competition 10^−3 M) was 78 and the “mean fluorescence (6 spots)” value ([1]; pep-Biotine 10^−6 mg/ml, biotin in competition 10^−4 M) was 189. For the same substance, the “mean fluorescence (6 spots)” value ([1]; pep-Biotine 10^−6 mg/ml, biotin in competition 10^−6 M) was 2350, the “mean fluorescence (6 spots)” value ([1]; pep-Biotine 10^−6 mg/ml, biotin in competition 10^−7 M) was 2611 and the “mean fluorescence (6 spots)” value ([2]; pep-Biotine 10^−3 mg/ml, anti-biotin antibody 10^−1 mg/ml) was 15350. The “mean fluorescence (6 spots)” value ([2]; pep-Biotine 10^−3 mg/ml, anti-biotin antibody 10^−2 mg/ml) was 13113, the “mean fluorescence (6 spots)” value ([2]; pep-Biotine 10^−3 mg/ml, anti-biotin antibody 10^−3 mg/ml) was 6828 and the “mean fluorescence (6 spots)” value ([2]; pep-Biotine 10^−3 mg/ml, anti-biotin antibody 10^−4 mg/ml) was 2271. The “mean fluorescence (6 spots)” value ([2]; pep-Biotine 10^−4 mg/ml, anti-biotin antibody 10^−1 mg/ml) was 14721, the “mean fluorescence (6 spots)” value ([2]; pep-Biotine 10^−4 mg/ml, anti-biotin antibody 10^−2 mg/ml) was 9121 and the “mean fluorescence (6 spots)” value ([2]; pep-Biotine 10^−4 mg/ml, anti-biotin antibody 10^−3 mg/ml) was 4981. For the same substance, the “mean fluorescence (6 spots)” value ([2]; pep-Biotine 10^−4 mg/ml, anti-biotin antibody 10^−4 mg/ml) was 1535, the “mean fluorescence (6 spots)” value ([2]; pep-Biotine 10^−5 mg/ml, anti-biotin antibody 10^−1 mg/ml) was 10932 and the “mean fluorescence (6 spots)” value ([2]; pep-Biotine 10^−5 mg/ml, anti-biotin antibody 10^−2 mg/ml) was 6849. The “mean fluorescence (6 spots)” value ([2]; pep-Biotine 10^−5 mg/ml, anti-biotin antibody 10^−3 mg/ml) was 3377, the “mean fluorescence (6 spots)” value ([2]; pep-Biotine 10^−5 mg/ml, anti-biotin antibody 10^−4 mg/ml) was 1249 and the “mean fluorescence (6 spots)” value ([2]; pep-Biotine 10^−6 mg/ml, anti-biotin antibody 10^−1 mg/ml) was 6606. The “mean fluorescence (6 spots)” value ([2]; pep-Biotine 10^−6 mg/ml, anti-biotin antibody 10^−2 mg/ml) was 2947, the “mean fluorescence (6 spots)” value ([2]; pep-Biotine 10^−6 mg/ml, anti-biotin antibody 10^−3 mg/ml) was 791 and the “mean fluorescence (6 spots)” value ([2]; pep-Biotine 10^−6 mg/ml, anti-biotin antibody 10^−4 mg/ml) was 385. The “mean fluorescence (6 spots)” value ([3]; pep-Biotine 10^−3 mg/ml, streptavidin 10^−1 mg/ml) was 34660, the “mean fluorescence (6 spots)” value ([3]; pep-Biotine 10^−3 mg/ml, streptavidin 10^−3 mg/ml) was 29836 and the “mean fluorescence (6 spots)” value ([3]; pep-Biotine 10^−3 mg/ml, streptavidin 10^−4 mg/ml) was 13816. For the same substance, the “mean fluorescence (6 spots)” value ([3]; pep-Biotine 10^−4 mg/ml, streptavidin 10^−1 mg/ml) was 31781, the “mean fluorescence (6 spots)” value ([3]; pep-Biotine 10^−4 mg/ml, streptavidin 10^−3 mg/ml) was 24666 and the “mean fluorescence (6 spots)” value ([3]; pep-Biotine 10^−4 mg/ml, streptavidin 10^−4 mg/ml) was 7931. The “mean fluorescence (6 spots)” value ([3]; pep-Biotine 10^−5 mg/ml, streptavidin 10^−1 mg/ml) was 26524, the “mean fluorescence (6 spots)” value ([3]; pep-Biotine 10^−5 mg/ml, streptavidin 10^−3 mg/ml) was 20902 and the “mean fluorescence (6 spots)” value ([3]; pep-Biotine 10^−5 mg/ml, streptavidin 10^−4 mg/ml) was 7673. For the same substance, the “mean fluorescence (6 spots)” value ([3]; pep-Biotine 10^−6 mg/ml, streptavidin 10^−1 mg/ml) was 18500, the “mean fluorescence (6 spots)” value ([3]; pep-Biotine 10^−6 mg/ml, streptavidin 10^−3 mg/ml) was 10737 and the “mean fluorescence (6 spots)” value ([3]; pep-Biotine 10^−6 mg/ml, streptavidin 10^−4 mg/ml) was 2124.

For “H-MTNRRPQDVKFPGGGQIVGGVYLLPRRGPRLG-NH2 [pc21-Met, non-transaminated control peptide]”, the “Mean Fluorescence” value ([4]; Serum 41, ELISA o.d. 1.4) was 960, the “Mean Fluorescence” value ([4]; Serum 43, ELISA o.d. 1.7) was 2810 and the “Mean Fluorescence” value ([4]; Serum 45, ELISA o.d. 0.7) was 356. The “Mean Fluorescence” value ([4]; Serum 48, negative) was 59, the “Mean Fluorescence” value ([4]; Serum 53, ELISA o.d. 2.7) was 7741 and the “Mean Fluorescence” value ([4]; Serum 55, negative) was 55.
